{"source": "paper PMC5259778", "about": "“Candidate pheromone receptors of codling moth Cydia pomonella respond to pheromones and kairomones” (Scientific Reports, 2017)", "data": [{"biological_target": "CpomOrco (Cydia pomonella, UniProt H9A5M2)", "assay": "Calcium imaging of HEK293T cells expressing homomeric CpomOrco", "format": "cell-based", "conditions": "peak amplitudes normalized to response at 1000 μM agonist, read-out: [A]1/2 half-effective concentration of agonist, calcium response", "description": "HEK293T cells were grown in HEK cell media [Dulbecco’s modified Eagle’s medium containing 10% fetal bovine serum (MP Biomedicals, Solon, OH, USA), 2.0 mM L-glutamine, and 100 μg/mL Penicillin/Streptomycin (Invitrogen)] at 37 °C and 5% CO2. To test transient expression of CpomORs for calcium imaging or patch-clamp recording experiments, 35-mm petri dishes containing semi-confluent HEK293T cells were transiently transfected. To transfect cells with CpomOrco, we used 1.0 μg of pcDNA5/TO/CpomOrco DNA. In order to promote expression of the OR[51], we used double aliquots for pcDNA5/TO/CpomOR DNAs (2.0 μg), combined with 1.0 μg of pcDNA5/TO/CpomOrco for co-transfections (CpomOrco + ORs). […]\n(§1) Fluorescence imaging was performed using Imaging Workbench 6 software (INDEC BioSystems, Santa Clara, CA, USA). Each cell was assigned a region of interest (ROI) and changes in fluorescence intensity within each ROI were measured and expressed as the fractional change in fluorescence intensity (dF) or in some cases as dF/F0 where F0 is the basal fluorescence level before agonist application. […] Continuous traces of multiple responses were compensated for slow drift of the baseline fluorescence when necessary. […]", "units": {"EC50": "µM"}, "values": [{"compound": "CCc1ccc(NC(=O)CSc2nnc(-c3cccnc3)n2CC)cc1", "note": "[VUAA1, acetamide,N-(4-ethylphenyl)-2-[[4-ethyl-5-(3-pyridinyl)-4H-1,2,4-triazol-3-yl]thio]-]", "EC50": "~520"}]}, {"test_system": "CpomOrco + OR complexes", "assay": "Calcium imaging of HEK293T cells expressing heteromeric CpomOrco + OR complexes", "format": "cell-based, Cydia pomonella", "conditions": "MIA 100 μM applied extracellularly; all heteromeric complexes; only partially reversible", "description": "(§2) HEK293T cells were grown in HEK cell media [Dulbecco’s modified Eagle’s medium containing 10% fetal bovine serum (MP Biomedicals, Solon, OH, USA), 2.0 mM L-glutamine, and 100 μg/mL Penicillin/Streptomycin (Invitrogen)] at 37 °C and 5% CO2. To test transient expression of CpomORs for calcium imaging or patch-clamp recording experiments, 35-mm petri dishes containing semi-confluent HEK293T cells were transiently transfected. To transfect cells with CpomOrco, we used 1.0 μg of pcDNA5/TO/CpomOrco DNA. In order to promote expression of the OR[51], we used double aliquots for pcDNA5/TO/CpomOR DNAs (2.0 μg), combined with 1.0 μg of pcDNA5/TO/CpomOrco for co-transfections (CpomOrco + ORs). To report expression for calcium imaging experiments, 1.0 μg of a separate plasmid DNA [pEBFP2-Nuc, a gift from Robert Campbell (Addgene plasmid # 14893[52])] carrying the coding sequence for a blue fluorescent protein (BFP) was used. In patch-clamp recordings, 1.0 μg of a separate plasmid DNA (pXOOM, Clontech) carrying the coding sequence for a green fluorescent protein (GFP) was used to report expression. In order to report candidate OR-expressing cells, expression of both fluorescent reporter genes was under the regulation of the same promoter for CpomOR genes (CMV). Transfection DNAs were dissolved in 100 μL sterile DMEM, mixed with 3.0 μL Calfectin (SignaGen, Rockville, MD, USA) following the recommended protocol. To estimate transfection efficiency, a parallel transfection was conducted using the positive control vector pcDNA5/TO/LACZ (Invitrogen) and staining with 0.1% XGal[53]. […]\nas §1", "values": [{"compound": "CC(C)CN(C)c1nc(N)c(C(=O)N=C(N)N)nc1Cl", "note": "[MIA, 5-(N-methyl-N-isobutyl) amiloride]", "block of the VUAA3 activated calcium signal": "almost completely blocked"}]}, {"test_system": "CpomOrco + OR complexes", "assay": "Calcium imaging of HEK293T cells expressing heteromeric CpomOrco + OR complexes", "format": "cell-based, Cydia pomonella", "conditions": "heteromeric complexes; peak amplitudes normalized to response at 1000 μM agonist; read-out: [A]1/2 half-effective concentration of agonist, calcium response", "description": "as §2, §1", "units": {"EC50": "µM"}, "values": [{"compound": "CCc1ccc(NC(=O)CSc2nnc(-c3cccnc3)n2CC)cc1", "note": "[VUAA1, acetamide,N-(4-ethylphenyl)-2-[[4-ethyl-5-(3-pyridinyl)-4H-1,2,4-triazol-3-yl]thio]-]", "EC50": "~150"}]}, {"biological_target": "T1, CpomOrco + OR3 (Cydia pomonella, UniProt H9A5M3)", "T1 sequence (H9A5M3 1-426)": "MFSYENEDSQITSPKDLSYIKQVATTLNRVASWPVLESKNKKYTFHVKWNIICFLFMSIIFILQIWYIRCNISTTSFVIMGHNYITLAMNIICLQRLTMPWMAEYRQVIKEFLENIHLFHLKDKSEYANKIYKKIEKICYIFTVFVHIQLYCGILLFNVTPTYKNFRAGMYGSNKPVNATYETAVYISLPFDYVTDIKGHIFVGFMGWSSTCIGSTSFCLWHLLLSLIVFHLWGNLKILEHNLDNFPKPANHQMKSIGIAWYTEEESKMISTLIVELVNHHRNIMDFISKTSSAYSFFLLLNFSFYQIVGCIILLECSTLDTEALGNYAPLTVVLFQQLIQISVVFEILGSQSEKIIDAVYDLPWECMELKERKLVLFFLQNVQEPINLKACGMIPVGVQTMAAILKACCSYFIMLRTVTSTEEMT", "T1 sequence (H9A5M2 1-473 partner)": "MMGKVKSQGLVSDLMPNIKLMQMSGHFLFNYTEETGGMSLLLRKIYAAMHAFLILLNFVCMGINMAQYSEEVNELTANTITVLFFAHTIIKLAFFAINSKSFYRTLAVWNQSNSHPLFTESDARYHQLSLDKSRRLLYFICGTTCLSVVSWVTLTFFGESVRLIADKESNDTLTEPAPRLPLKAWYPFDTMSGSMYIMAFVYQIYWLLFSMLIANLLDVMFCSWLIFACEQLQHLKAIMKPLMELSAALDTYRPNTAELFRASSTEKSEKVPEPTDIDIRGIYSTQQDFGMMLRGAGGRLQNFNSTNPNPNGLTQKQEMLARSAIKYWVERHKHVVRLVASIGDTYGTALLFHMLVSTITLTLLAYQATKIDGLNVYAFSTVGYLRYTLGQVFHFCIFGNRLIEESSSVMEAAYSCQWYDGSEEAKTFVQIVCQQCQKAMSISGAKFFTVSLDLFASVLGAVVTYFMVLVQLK", "assay": "Calcium imaging of HEK293T cells expressing CpomOrco + OR3", "format": "cell-based", "conditions": "500 μM; n = 151", "units": {"amplitude of the calcium response (mean of the maximum response ± SEM)": "dF"}, "method": "HEK293T cells were grown in HEK cell media [Dulbecco’s modified Eagle’s medium containing 10% fetal bovine serum (MP Biomedicals, Solon, OH, USA), 2.0 mM L-glutamine, and 100 μg/mL Penicillin/Streptomycin (Invitrogen)] at 37 °C and 5% CO2. To test transient expression of CpomORs for calcium imaging or patch-clamp recording experiments, 35-mm petri dishes containing semi-confluent HEK293T cells were transiently transfected. To transfect cells with CpomOrco, we used 1.0 μg of pcDNA5/TO/CpomOrco DNA. In order to promote expression of the OR[51], we used double aliquots for pcDNA5/TO/CpomOR DNAs (2.0 μg), combined with 1.0 μg of pcDNA5/TO/CpomOrco for co-transfections (CpomOrco + ORs). […] In order to report candidate OR-expressing cells, expression of both fluorescent reporter genes was under the regulation of the same promoter for CpomOR genes (CMV). Transfection DNAs were dissolved in 100 μL sterile DMEM, mixed with 3.0 μL Calfectin (SignaGen, Rockville, MD, USA) following the recommended protocol.\nTransfections were conducted overnight. HEK cell media was replaced with 1.0 mL fresh media to incubate cells at 37 °C for up to 6 h, at which point part of the cell culture was spread in the middle of a 35-mm plate as individual cells or small clusters. After 12 h of incubation at 37 °C and 5% CO2, cells were rinsed at the sides with 2.0 mL fresh HEK media. Cells were allowed to recover for at least 1 h prior to calcium imaging.\nAfter incubation, the buffer was removed and cells were rinsed with 4.0 mL fresh HEK Ca^++ Ringer (mM: 140 NaCl, 2.0 CaCl2, 10 HEPES, pH 7.5), and placed on the stage of an inverted microscope (Olympus IX-71, Olympus Corp., Tokyo, Japan) equipped with a cooled CCD camera (ORCA R2, Hamamatsu, Hamamatsu City, Japan). Cells were continuously superfused with Ca^++ Ringer using two gravity fed perfusion contours. The stimulating contour washing the cells (~250 μL/min) was switched rapidly to the stimulus contour using a multi-channel rapid solution changer (RSC-160, Bio-Logic, Claix, France) under the software control of Clampex 9 (Molecular Devices, Sunnyvale, CA, USA).\nFluorescence imaging was performed using Imaging Workbench 6 software (INDEC BioSystems, Santa Clara, CA, USA). Each cell was assigned a region of interest (ROI) and changes in fluorescence intensity within each ROI were measured and expressed as the fractional change in fluorescence intensity (dF) or in some cases as dF/F0 where F0 is the basal fluorescence level before agonist application. […] Continuous traces of multiple responses were compensated for slow drift of the baseline fluorescence when necessary. All recordings were performed at room temperature (22–25 °C).\nCompounds were diluted in either DMSO or ethanol (Sigma Aldrich) depending on their solubility properties. […]", "values": [{"compound": "CCCCC/C=C\\C=C\\C(=O)OC", "note": "[(E,Z)-MD, methyl (E,Z)-2,4-decadienoate]", "amplitude of the calcium response (mean of the maximum response ± SEM)": "10.40 ± 5.91"}]}, {"biological_target": "T1, CpomOrco + OR3", "assay": "Calcium imaging of HEK293T cells expressing CpomOrco + OR3", "format": "cell-based", "conditions": "calcium response normalized to 250 μM VUAA3", "units": {"EC50": "µM"}, "values": [{"compound": "CCCCC/C=C\\C=C\\C(=O)OC", "note": "[(E,Z)-MD, methyl (E,Z)-2,4-decadienoate]", "EC50": "1080 ± 113"}]}, {"test_system": "CpomOR3", "assay": "Single sensillum recordings, CpomOR3 expressed in Drosophila ab3A OSNs", "format": "cell-based, Cydia pomonella", "conditions": "dose loaded in the stimulus cartridge", "text": "To perform heterologous expression in D. melanogaster OSNs, CpomORs were amplified using primers in Table 2 and purified PCR products were cloned into the PCR8/GW/TOPO plasmid (Invitrogen) following the recommended protocol. Cassettes with inserts were then transferred from their PCR8/GW/TOPO plasmids to the destination vector (pUASg-HA.attB, constructed by E. Furger and J. Bischof, kindly provided by the Basler group, Zürich), using the Gateway LR Clonase II kit (Invitrogen). The integrity and orientation of inserts was confirmed by sequencing (Sanger sequencer, 3730xl). […]\nCpomOR1 and CpomOR6a expressed in at1 OSNs, and CpomOR3 expressed in ab3A OSNs, were tested through single sensillum recordings (SSR). […] The reference electrode was manually inserted in the right eye of the fly, while the recording electrode was manoeuvred with a DC-3K micromanipulator equipped with a PM-10 piezo translator (Märzhäuser Wetzler GmbH, Wetzler, Germany) and inserted at the base of the determined sensilla. Signals coming from the olfactory sensory neurons were amplified 10 times with a probe (INR-02, Syntech, Hilversum, the Netherlands), digitally converted through an IDAC-4-USB (Syntech) interface, and visualized and analysed with the software Autospike v. […]", "units": {"minimum dose to elicit a response significantly different from the solvent": "µg"}, "values": [{"compound": "CCCCC/C=C\\C=C\\C(=O)OC", "note": "[(E,Z)-MD, methyl (E,Z)-2,4-decadienoate]", "minimum dose to elicit a response significantly different from the solvent": 10}]}, {"test_system": "not given", "assay": "not given", "conditions": "ref Scifinder, 2015; Chemspider; cited from earlier work", "units": {"Solubility": "mM"}, "values": [{"compound": "CCC/C=C/C=O", "note": "[(E)-2-hexenal]", "LogP": "1.790±0.281", "Solubility (M)": "0,09 M"}, {"compound": "CC/C=C\\CCO", "note": "[(Z)-3-hexenol]", "Solubility": 140}, {"compound": "O=Cc1ccccc1", "note": "[benzaldehyde]", "LogP": "1.452±0.242", "Solubility (M)": "0,02 M"}, {"compound": "COCc1ccccc1", "note": "[benzyl methyl ether]", "LogP": "1.843±0.239", "Solubility (M)": "0,05 M"}, {"compound": "CC(C)(C)c1ccc(CCC=O)cc1", "note": "[bourgeonal]", "LogP": "3.486±0.245", "Solubility (M)": "4,50E-04 M"}, {"compound": "O=C1CCCCC1", "note": "[cyclohexanone]", "LogP": "0.821±0.251", "Solubility": 150}, {"compound": "CCCc1ccc(O)c(OC)c1", "note": "[dihydro eugenol, 2-methoxy-4-propylphenol]", "LogP": "2.943±0.224", "Solubility (M)": "6,00E-03 M"}, {"compound": "C=CCc1ccc(O)c(OC)c1", "note": "[eugenol]", "LogP": "2.403±0.236"}, {"compound": "CC(C)=CCC/C(C)=C/CO", "note": "[geraniol]", "LogP": "2.942±0.271"}, {"compound": "CC(C=O)Cc1ccc2c(c1)OCO2", "note": "(centres unmarked) [helional]", "LogP": "1.982±0.343"}, {"compound": "O=Cc1ccc2c(c1)OCO2", "note": "[heliotropin]", "LogP": "1.050±0.302"}, {"compound": "CCCCCCCOC(=O)CCC", "note": "[heptyl butyrate]", "LogP": "4.352±0.206"}, {"compound": "C/C=C/c1ccc2c(c1)OCO2", "note": "[isosafrol]", "LogP": "3.904±0.349", "Solubility (M)": "5,90E-04 M"}, {"compound": "COC(=O)c1ccccc1", "note": "[methyl benzoate]", "Solubility (M)": "0,02 M"}, {"compound": "C=CCc1ccc(OC)c(OC)c1", "note": "[methyl eugenol]", "LogP": "2.655±0.243"}, {"compound": "CCCCC(=O)OC", "note": "[methyl valerate]", "LogP": "1.804±0.205"}, {"compound": "C/C=C/c1ccc(OC)c(OC)c1", "note": "[methyl-iso-eugenol]", "LogP": "3.049±0.239", "Solubility": 3.6}, {"compound": "O=CCc1ccccc1", "note": "[phenyl acetaldehyde]", "LogP": "1.760±0.224", "Solubility (M)": "0,016 M"}, {"compound": "NCCc1ccccc1", "note": "[phenylethylamine]", "LogP": "1.435±0.189", "Solubility (M)": "0,085 M"}, {"compound": "CC(=O)OCC=C(C)C", "note": "[prenyl acetate]", "LogP": "2.017±0.274", "Solubility (M)": "0,069 M"}, {"compound": "CCC/C=C/C=O", "note": "[trans-2-hexenal]", "LogP": "1.790±0.281"}, {"compound": "COc1cc(C=O)ccc1O", "note": "[vanillin]", "Solubility (M)": "0,024 M"}, {"compound": "C/C1=C\\CC/C(C)=C/CC(C)(C)/C=C/C1", "note": "[α-humulene]", "LogP": "6.592±0.249", "Solubility (M)": "1,10E-08 M"}]}]}
